Results reported in PubChem BioAssay (NCI).
Several values for one entry are separate records, joined by “and”; a condition that tells them apart may be missing. Equal entries are not always repeated.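 Cultured in 96-well plates, cells were exposed to test compound for 48 hours across five concentrations. GI50 is the concentration that inhibits growth by half. TGI: concentration producing complete growth inhibition.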

What was measured:
Assay in all cases: inhibition of tumour cell growth, NCI panel, 48 h
A498 renal = system: A498 renal
CAKI-1 renal = system: CAKI-1 renal
EKVX NSCLC = system: EKVX NSCLC
HCT-15 colon = system: HCT-15 colon
HL-60(TB) leukemia = system: HL-60(TB) leukemia
HOP-62 NSCLC = system: HOP-62 NSCLC
OVCAR-4 ovarian = system: OVCAR-4 ovarian
OVCAR-8 ovarian = system: OVCAR-8 ovarian
SF-268 CNS = system: SF-268 CNS
SK-OV-3 ovarian = system: SK-OV-3 ovarian

| Compound | TGI (A498 renal) [µM] | TGI (CAKI-1 renal) | TGI (EKVX NSCLC) | TGI (HCT-15 colon) | TGI (HL-60(TB) leukemia) | TGI (HOP-62 NSCLC) | TGI (OVCAR-4 ovarian) | TGI (OVCAR-8 ovarian) | TGI (SF-268 CNS) | TGI (SK-OV-3 ovarian) | GI50 (A498 renal) [µM] | GI50 (CAKI-1 renal) | GI50 (EKVX NSCLC) | GI50 (HCT-15 colon) | GI50 (HL-60(TB) leukemia) | GI50 (HOP-62 NSCLC) | GI50 (OVCAR-4 ovarian) | GI50 (OVCAR-8 ovarian) | GI50 (SF-268 CNS) | GI50 (SK-OV-3 ovarian) |
| --- | --- | --- | --- | --- | --- | --- | --- | --- | --- | --- | --- | --- | --- | --- | --- | --- | --- | --- | --- | --- |
| Cc1ccc(C(O)c2cnc(C)n2Cc2ccccc2)cc1 (stereo not given) | > 100 | > 100 µM | > 100 µM | > 100 µM | > 100 µM | > 100 µM | > 100 µM | > 100 µM | > 100 µM | > 100 µM | – | – | – | – | – | – | – | – | – | – |
| CN(C)CCOc1ccc2c(c1)C/C(=C/c1ncc([N+](=O)[O-])n1C)C2=O | 5.54 | 7.81 µM | 18 µM | 3.92 µM | 71.7 µM | 11.4 µM | 5.84 µM | 8.01 µM | 9.1 µM | 15 µM | – | – | – | – | – | – | – | – | – | – |
| Cc1cc(C(C#N)c2ccc(Cl)cc2)c(Cl)cc1NC(=O)c1cc(I)cc(I)c1O (stereo not given) | 29.9 | 35.1 µM and 40.9 µM | 31.1 µM and 33.7 µM | 19.8 µM and 31.7 µM | 15.9 µM and 48.9 µM | 34.4 µM and 32.4 µM | 51.4 µM and 47.9 µM | > 100 µM and 52.1 µM | 22.2 µM and 31.3 µM | 29.2 µM and 29.5 µM | 11.2 | 10.2 µM and 14.3 µM | 6.71 µM and 13.2 µM | 5.25 µM and 15.8 µM | 4.34 µM and 22.1 µM | 13.9 µM and 15.2 µM | 16.4 µM and 17.5 µM | 6.02 µM and 21.4 µM | 7.58 µM and 13.8 µM | 15.6 µM and 15.8 µM |
| Cc1nc2sc(C(=O)Nc3ccccc3)c(N)c2cc1C(=O)/C=C/c1ccccc1 | 6.08 | 3.74 µM | 6.48 µM | 3.63 µM | 4.83 µM | 5.13 µM | 18.5 µM | 11.8 µM | 9.93 µM | 23.3 µM | 2.21 | 1.87 µM | 2.26 µM | 1.57 µM | 2.03 µM | 2.15 µM | 3.1 µM | 3.03 µM | 2.94 µM | 4.03 µM |
| CC(=O)Nc1ccc2c(c1)oc(=O)c1cc(NC(C)=O)ccc12 | > 100 | > 100 µM | > 100 µM | > 100 µM | > 100 µM | > 100 µM | > 100 µM | > 100 µM | > 100 µM | > 100 µM | > 100 | > 100 µM | > 100 µM | > 100 µM | 41.3 µM | > 100 µM | > 100 µM | > 100 µM | 50.5 µM | > 100 µM |
| Oc1ccc(CCCCCCc2ccc(O)cc2)cc1 | 23.5 | 7.58 µM | 26.7 µM | 26.6 µM | 18.7 µM | 23.4 µM | > 46.9 µM | 20.2 µM | 17.5 µM | 34.1 µM | 11.4 | 1.75 µM | 10.3 µM | 12.3 µM | 0.839 µM | 10.3 µM | 14.4 µM | 5.18 µM | 3.89 µM | 11.8 µM |
| C[C@@H]1CN(CC(=O)N2CC(C)(C)c3nc(CO)c(Cc4ccc(F)cc4)cc32)[C@@H](CN2CCOC[C@H]2C)CN1 | 96.2 | > 100 µM | > 100 µM | > 100 µM | 76.2 µM | > 100 µM | > 100 µM | > 100 µM | > 100 µM | 0.088 µM | 25.8 | > 100 µM | 96.7 µM | 31.4 µM | 26.6 µM | > 100 µM | 20.6 µM | 32.1 µM | 64.1 µM | 0.0235 µM |
| O=C1C2=C(c3ccccc31)C(c1ccccc1)NC(=S)N2 (stereo not given) | > 100 | > 100 µM | > 100 µM | > 100 µM | 39.6 µM | > 100 µM | > 100 µM | > 100 µM | > 100 µM | > 100 µM | – | – | – | – | – | – | – | – | – | – |
| COc1ccc(NC(=O)c2cc(OC)c(OC)c(OC)c2)cc1 | > 100 | > 100 µM | > 100 µM | > 100 µM | 68 µM | 99.7 µM | > 100 µM | > 100 µM | > 94.8 µM | > 100 µM | – | – | – | – | – | – | – | – | – | – |
| O=C(CN1CCN(c2ccccc2)CC1)N1CCc2c([nH]c3ccccc23)C1c1cccnc1 (stereo not given) | > 100 | > 72.6 µM | > 100 µM | > 100 µM | > 100 µM | > 100 µM | > 66.8 µM | > 100 µM | > 100 µM | > 88.3 µM | – | – | – | – | – | – | – | – | – | – |
| CC(=O)O[C@@H]1CC2C(C)(C)CCCC2(C)C2=C1C(=O)C(C(C)C)=CC2=O (stereo not given in full) | 2.35 | 2.63 µM | 6.88 µM | 2.49 µM | 4.28 µM | 4.13 µM | 6.58 µM | 15.9 µM | 38.1 µM | 8.5 µM | 1.06 | 1.03 µM | 1.02 µM | 0.536 µM | 0.744 µM | 1.77 µM | 0.838 µM | 2.64 µM | 1.39 µM | 3.26 µM |
| CC(C)CC1=[N+]=C(NC#N)N=C(CCC(=O)Nc2ccccc2[N+](=O)[O-])C1 | > 100 | > 100 µM | > 100 µM | > 100 µM | > 100 µM | > 100 µM | > 100 µM | > 100 µM | > 100 µM | > 100 µM | – | – | – | – | – | – | – | – | – | – |
| CCCCCCCCCCCCCC(=O)CBr | 35.5 | 3.13 µM | 39.9 µM | 28.3 µM | 3.08 µM | 50.6 µM | 28.8 µM | 35.6 µM | 20 µM | 43.2 µM | – | – | – | – | – | – | – | – | – | – |
